Results on 31 compounds are retold here after US20230104936A1, “TRPML MODULATORS” (Casma Therapeutics, Inc., priority 2019, published 2023).

This assay has as its system TFEB. Kind of assay: TFEB nuclear translocation assay, HeLa wt cells. Particulars: 2 hrs compound treatment, Table 1 does not say HeLa wt or TRPML1 KO. It counts as cell-based. In a few lines:
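HeLa wt cells were treated with compound for 2 hrs at 37° C, then fixed in 4% PFA and immunostained for TFEB with an Alexa 488 secondary and Hoechst nuclear counterstain. Automated epifluorescence imaging at ×20 gave the ratio of nuclear TFEB intensity to a perinuclear ring region, from which AC50 was derived.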

The structures appear in SMILES notation.

Usually AC50 stands for the midpoint of the concentration-response curve, whichever way the signal moves. For `COc1ccc(S(=O)(=O)Nc2ccccc2N(C)c2ccc(F)cc2F)cc1` [Compound A-199, N-{2-[(2,4-difluorophenyl)(methyl)amino]phenyl}-4-methoxybenzene-1-sulfonamide], where the note is “Homo sapiens, HeLa, 2 h”, the AC50 was ≥ 10 µM.

For `CCC1(OC)CCN(c2ccccc2NS(=O)(=O)c2ccc(S(=O)(=O)N(C)C)cc2)CC1` [Compound A-546, N4-[2-(4-ethyl-4-methoxypiperidin-1-yl)phenyl]-N1,N1-dimethylbenzene-1,4-disulfonamide], the AC50 (Homo sapiens, HeLa, 2 h) was ≤ 2 µM.

As for `CN(C)S(=O)(=O)c1ccc(S(=O)(=O)n2ccn(C3CCN(c4ccc(Cl)cc4F)CC3)c2=O)cc1` [Compound A-67, 4-((3-(1-(4-chloro-2-fluorophenyl)piperidin-4-yl)-2-oxo-2,3-dihydro-1H-imidazol-1-yl)sulfonyl)-N,N-dimethylbenzenesulfonamide], under “Homo sapiens, HeLa, 2 h”, the AC50 was ≥ 10 µM.

Regarding `O=S(=O)(Nc1cc(Cl)ccc1N1CCC2(COC2)C1)c1ccc2c(c1)CCC2` [Compound A-395, N-(5-chloro-2-{2-oxa-6-azaspiro[3.4]octan-6-yl}phenyl)-2,3-dihydro-1H-indene-5-sulfonamide], for the setting “Homo sapiens, HeLa, 2 h”, the AC50 is ≥ 10 µM.

`CS(=O)(=O)c1ccc(S(=O)(=O)Nc2ccccc2N2CCC(O)(c3ccc(Cl)cc3F)CC2)cc1` [Compound A-142, N-{2-[4-(4-chloro-2-fluorophenyl)-4-hydroxypiperidin-1-yl]phenyl}-4-methanesulfonylbenzene-1-sulfonamide] had an AC50 (Homo sapiens, HeLa, 2 h) of 2.01 to 8 µM.

Consider `COCC1(C)CCN(c2ccccc2NS(=O)(=O)Cc2ccc(C)c(C)c2)CC1` [Compound A-642, 1-(3,4-dimethylphenyl)-N-{2-[4-(methoxymethyl)-4-methylpiperidin-1-yl]phenyl}methanesulfonamide], for which the AC50 (Homo sapiens, HeLa, 2 h) is ≤ 2 µM.

With `CN(C)S(=O)(=O)c1ccc(S(=O)(=O)Cc2ccccc2N2CCC(c3c(F)cccc3F)CC2)cc1` [Compound A-229, 4-((2-(4-(2,6-difluorophenyl)piperidin-1-yl)benzyl)sulfonyl)-N,N-dimethylbenzenesulfonamide], the AC50 (Homo sapiens, HeLa, 2 h) was ≤ 2 µM.

For `C[C@@H]1CN(CC2CCN(c3c(F)cccc3NS(=O)(=O)c3ccc(S(=N)(=O)N(C)C)cc3)CC2)C[C@H](C)O1` (single isomer, unassigned) [Compound A-811, Rel-N-(2-(4-((2,6-dimethylmorpholino)methyl)piperidin-1-yl)-3-fluorophenyl)-4-(N,N-dimethylsulfamidimidoyl)benzenesulfonamide], the AC50 is ≤ 2 µM.

Regarding `O=S(=O)(Nc1cccc(Cl)c1N1CCOCC1)c1ccc(S(=O)(=O)C(F)F)cc1` [Compound A-274, N-[3-chloro-2-(morpholin-4-yl)phenyl]-4-difluoromethanesulfonylbenzene-1-sulfonamide], the AC50 (Homo sapiens, HeLa, 2 h) is ≥ 10 µM.

For the compound `CN1CC2(CCN(c3ccccc3NS(=O)(=O)c3ccc(S(=O)(=O)N(C)C)cc3)CC2)c2ccc(F)cc21` [Compound A-215, N4-(2-{6-fluoro-1-methyl-1,2-dihydrospiro[indole-3,4′-piperidin]-1′-yl}phenyl)-N1,N1-dimethylbenzene-1,4-disulfonamide], the AC50 (Homo sapiens, HeLa, 2 h) is ≤ 2 µM.

Take `COCC1(C)CC2CCC(C1)N2c1ccccc1NS(=O)(=O)c1ccc(S(=O)(=O)N(C)C)cc1` (stereo not shown) [Compound A-734, N4-{2-[3-(methoxymethyl)-3-methyl-8-azabicyclo[3.2.1]octan-8-yl]phenyl}-N1,N1-dimethylbenzene-1,4-disulfonamide]: the AC50 (Homo sapiens, HeLa, 2 h) is ≤ 2 µM.

Consider `CC(c1cccc(F)c1N1CCCCC1)S(=O)(=O)c1ccc(S2(=O)=NCCC2)cc1` (single isomer, unassigned) [Compound A-981, 1-(4-((1-(3-fluoro-2-(piperidin-1-yl)phenyl)ethyl)sulfonyl)phenyl)-4,5-dihydro-3H-isothiazole 1-oxide], for which the AC50 is ≥ 10 µM.

For `CN(C)S(=O)(=O)c1ccc(S(=O)(=O)Nc2ccccc2N2CCN(C(=O)C(C)(F)F)CC2)cc1` [Compound A-446, N4-{2-[4-(2,2-difluoropropanoyl)piperazin-1-yl]phenyl}-N1,N1-dimethylbenzene-1,4-disulfonamide], the AC50 (Homo sapiens, HeLa, 2 h) was 2.01 to 8 µM.

On to `CC(c1ccccc1N1CCN(Cc2ccccc2)CC1)S(=O)(=O)c1ccc(S(=O)(=O)N(C)C)cc1` (stereo not shown) [Compound A-465, 4-((1-(2-(4-benzylpiperazin-1-yl)phenyl)ethyl)sulfonyl)-N,N-dimethylbenzenesulfonamide], for which the AC50 (Homo sapiens, HeLa, 2 h) is ≤ 2 µM.

Consider `CC(C)(C)C(=O)N1CCN(c2ccccc2NS(=O)(=O)c2ccc(C(C)(C)C#N)cc2)CC1` [Compound A-535, 4-(1-cyano-1-methylethyl)-N-{2-[4-(2,2-dimethylpropanoyl)piperazin-1-yl]phenyl}benzene-1-sulfonamide], for which the AC50 (Homo sapiens, HeLa, 2 h) lay in the range of 2.01 to 8 µM.

Regarding `C[C@@H]1CN(CC2CCN(c3c(NS(=O)(=O)c4ccc(S(=O)(=O)N(C)C)cc4)cccc3C3CC3)CC2)C[C@H](C)O1` [Compound A-863, N4-[3-cyclopropyl-2-(4-{[(2R,6S)-2,6-dimethylmorpholin-4-yl]methyl}piperidin-1-yl)phenyl]-N1,N1-dimethylbenzene-1,4-disulfonamide], where the note is “Homo sapiens, HeLa, 2 h”, the AC50 is ≤ 2 µM.

Take `COCC1(C)CCN(c2ccccc2NS(=O)(=O)Cc2cc(C)ccc2F)CC1` [Compound A-648, 1-(2-fluoro-5-methylphenyl)-N-{2-[4-(methoxymethyl)-4-methylpiperidin-1-yl]phenyl}methanesulfonamide]: the AC50 (Homo sapiens, HeLa, 2 h) is ≤ 2 µM.

Take `CCN1CCN(c2ccc(Cl)cc2NS(=O)(=O)c2ccc3c(c2)CCC3)C(=O)C1` [Compound A-314, N-[5-chloro-2-(4-ethyl-2-oxopiperazin-1-yl)phenyl]-2,3-dihydro-1H-indene-5-sulfonamide]: the AC50 (Homo sapiens, HeLa, 2 h) was ≥ 10 µM.

On to `C[C@@H]1CN(CC2CCN(c3c(F)cccc3NS(=O)(=O)c3ccc(S(=O)(=O)N(C)C)cc3)CC2)[C@@H](C)CO1` [Compound A-865, N4-[2-(4-{[(2R,5S)-2,5-dimethylmorpholin-4-yl]methyl}piperidin-1-yl)-3-fluorophenyl]-N1,N1-dimethylbenzene-1,4-disulfonamide], for which, under “Homo sapiens, HeLa, 2 h”, the AC50 was ≤ 2 µM.

With `O=S(=O)(Nc1ccccc1N1CCC(c2ccc(Cl)cc2F)CC1)c1cc(F)ccc1F` [Compound A-82, N-{2-[4-(4-chloro-2-fluorophenyl)piperidin-1-yl]phenyl}-2,5-difluorobenzene-1-sulfonamide], the AC50 (Homo sapiens, HeLa, 2 h) is ≥ 10 µM.

As to `C[C@H]1COC[C@H](C)N1CC1CCN(c2c(F)cccc2NS(=O)(=O)c2ccc(S(C)(=O)=O)cc2)CC1` (relative stereo) [Compound A-838, trans-N-(2-(4-((3,5-dimethylmorpholino)methyl)piperidin-1-yl)-3-fluorophenyl)-4-(methylsulfonyl)benzenesulfonamide], the AC50 (Homo sapiens, HeLa, 2 h) was ≤ 2 µM.

Turning to `CC(c1cccc(F)c1N1CCC(CN2C3COCC2C3)CC1)S(=O)(=O)c1ccc(S(=O)(=O)N(C)C)cc1` (stereo not shown) [Compound A-860, 4-(1-{3-fluoro-2-[4-({3-oxa-6-azabicyclo[3.1.1]heptan-6-yl}methyl)piperidin-1-yl]phenyl}ethanesulfonyl)-N,N-dimethylbenzene-1-sulfonamide], the AC50 lay within 2.01 to 8 µM.

On to `COCC1(C)CCN(c2ccccc2NS(=O)(=O)c2ccc3c(c2)C(C)(C)OC3)CC1` [Compound A-683, N-{2-[4-(methoxymethyl)-4-methylpiperidin-1-yl]phenyl}-3,3-dimethyl-1,3-dihydro-2-benzofuran-5-sulfonamide], for which, under “Homo sapiens, HeLa, 2 h”, the AC50 fell in the range of 2.01 to 8 µM.

As for `CN(C)S(=O)(=O)c1ccc(S(=O)(=O)Nc2ccccc2N2CCC(O)(c3ccc(Cl)cc3F)CC2)cc1` [Compound A-115, N4-{2-[4-(4-chloro-2-fluorophenyl)-4-hydroxypiperidin-1-yl]phenyl}-N1,N1-dimethylbenzene-1,4-disulfonamide], the AC50 (Homo sapiens, HeLa, 2 h) was ≤ 2 µM.

Turning to `CN(C)S(=O)(=O)c1ccc(S(=O)(=O)C(c2cccc(F)c2N2CCCCC2)C2CC2)cc1` (single isomer, unassigned) [Compound A-983, 4-((cyclopropyl(3-fluoro-2-(piperidin-1-yl)phenyl)methyl)sulfonyl)-N,N-dimethylbenzenesulfonamide], the AC50 is ≤ 2 µM.

In turn, `COCC1(C)CCN(c2ccccc2NS(=O)(=O)Cc2cccc(C)c2)CC1` [Compound A-593, N-{2-[4-(methoxymethyl)-4-methylpiperidin-1-yl]phenyl}-1-(3-methylphenyl)methanesulfonamide] yielded an AC50 (Homo sapiens, HeLa, 2 h) of 2.01 to 8 µM.

As for `CN(CCO)S(=O)(=O)c1ccc(S(=O)(=O)Nc2ccccc2N2CCC(c3c(F)cccc3F)CC2)cc1` [Compound A-223, N4-{2-[4-(2,6-difluorophenyl)piperidin-1-yl]phenyl}-N1-(2-hydroxyethyl)-N1-methylbenzene-1,4-disulfonamide], the AC50 (Homo sapiens, HeLa, 2 h) was in the range of 2.01 to 8 µM.

As to `CN(C)S(=O)(=O)c1ccc(S(=O)(=O)Nc2cccc(F)c2N2CCC3(CCC(=O)N3)CC2)cc1` [Compound A-796, N4-(3-fluoro-2-{2-oxo-1,8-diazaspiro[4.5]decan-8-yl}phenyl)-N1,N1-dimethylbenzene-1,4-disulfonamide], the AC50 (Homo sapiens, HeLa, 2 h) was ≥ 10 µM.

Take `O=S(=O)(Nc1ccccc1N1CCC(c2ccc(Cl)cc2F)CC1)c1ccccc1F` [Compound A-79, N-{2-[4-(4-chloro-2-fluorophenyl)piperidin-1-yl]phenyl}-2-fluorobenzene-1-sulfonamide]: the half-maximal activity concentration (AC50) (Homo sapiens, HeLa, 2 h) is ≥ 10 µM.

As to `COC(F)(F)C(F)(F)c1ccc(S(=O)(=O)Nc2ccccc2N2CCN(C(=O)C(C)(C)C)CC2)cc1` [Compound A-569, N-{2-[4-(2,2-dimethylpropanoyl)piperazin-1-yl]phenyl}-4-(1,1,2,2-tetrafluoro-2-methoxyethyl)benzene-1-sulfonamide], for the setting “Homo sapiens, HeLa, 2 h”, the AC50 is 8.01 to 9.99 µM.

On to `COCC1(C)CCN(c2ccccc2NS(=O)(=O)Cc2ccc(S(=O)(=O)COC)cc2)CC1` [Compound A-747, 1-(4-methoxymethanesulfonylphenyl)-N-{2-[4-(methoxymethyl)-4-methylpiperidin-1-yl]phenyl}methanesulfonamide], for which the AC50 (Homo sapiens, HeLa, 2 h) was ≥ 10 µM.
